Test results published in patent US10538497B2, “Compounds as indoleamine 2,3-dioxygenase inhibitors” (Merck Sharp & Dohme Corp., priority 2015, dated 2020).

What was measured:
[1] = target: T1, IDO1 (Homo sapiens (Human), UniProt P14902); test: IDO1 Cellular Assay in Frozen HEK293 Cells Transiently Transfected with Human IDO1; type: cell-based; settings: HEK293 cells transiently transfected with human IDO1; read-out: IDO1 HEK293 Cell Assay, IC50
Protocol: IDO1 Cellular Assay in Frozen HEK293 Cells Transiently Transfected with Human IDO1
HEK293 cells were cultured in complete HEK293 culture medium (90% DMEM, 10% heat-inactivated fetal bovine serum). When reaching sub-confluent, the cells were trypsinized and neutralized with complete medium. […] Flag-IDO1 plasmid was added to the cell suspension at a concentration of 100 μg/mL. The cell-plasmid solutions were transferred to the OC-400 processing assembly (Maxcyte), 400 l/unit and the units were placed in a Maxcyte instrument to carry out flow electroporation for transfection. The cells were then transferred to a sterile 24-well cell culture plate to recover for 20-30 min at 37° C. in an incubator with 5% CO2.
Frozen HEK293/IDO1 and HEK293 WT cells were thawed and transferred into HEK293 assay medium (99% complete HEK293 culture medium, 1% Pen/Strep) with 20 mL medium/vial of cells. The cells were spun down at 250 g in a table top centrifuge for 5 min and suspended in same volume of HEK293 assay medium. […] Sterile L-tryptophan were added to the cells with final concentration of 300 μM.
HEK293/IDO1 and HEK293 WT cells were dispensed to the respective wells of 384-well assay plates containing the compounds. The plates were incubated for about 28-30 h at a 37° C., 5% CO2 incubator. […] The plates were centrifuged for 1 min at 200×g. The resulting fluorescence was measured in a Spectramax plate reader (Molecular Devices) with a 400 nm excitation filter and a 510 nm emission filter.

[2] = target: T1, IDO1; test: IDO1 Cellular Assay in Hela Cells Stimulated with IFNγ; type: cell-based; settings: Hela cells stimulated with IFNγ 100 ng/mL; read-out: IDO1 HELA Cell Assay, IC50
[3] = target: T1, IDO1; test: IDO1 Enzyme Assay; settings: read-out: IDO1 Enzyme Assay, IC50; HIS-tagged recombinant IDO1, 40 nM

T1 sequence (P14902 whole entry): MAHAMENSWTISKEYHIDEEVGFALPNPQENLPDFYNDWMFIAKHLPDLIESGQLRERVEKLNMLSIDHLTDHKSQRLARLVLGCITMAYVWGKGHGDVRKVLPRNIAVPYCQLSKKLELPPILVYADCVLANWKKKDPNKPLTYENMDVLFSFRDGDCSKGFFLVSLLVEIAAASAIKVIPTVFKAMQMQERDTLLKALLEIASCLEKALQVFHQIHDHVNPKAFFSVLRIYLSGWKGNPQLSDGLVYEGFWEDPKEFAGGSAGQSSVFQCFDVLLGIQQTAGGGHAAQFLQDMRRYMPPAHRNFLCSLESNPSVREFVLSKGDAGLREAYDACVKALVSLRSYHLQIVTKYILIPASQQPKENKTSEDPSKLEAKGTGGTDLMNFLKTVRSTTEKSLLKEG

| SMILES | IC50 [1] [nM] | IC50 [2] [nM] | IC50 [3] [nM] |
| --- | --- | --- | --- |
| NS(=O)(=O)NCCSc1nsnc1/C(=N/O)Nc1ccc(F)c(Br)c1 [Example 47, N-(3-bromo-4-fluorophenyl)-N′-hydroxy-4-((2-(sulfamoylamino)ethyl)thio)-1,2,5-thiadiazole-3-carboximidamide] | 290 | 245 | 439 |
| COC(=O)[C@@H](N)CSc1nonc1/C(=N/O)Nc1ccc(F)c(Br)c1 [Example 48, methyl S-{4-[N-(3-bromo-4-fluorophenyl)-N′-hydroxycarbamimidoyl]-1,2,5-oxadiazol-3-yl}-L-cisteinate] | 226 | 648 | 170 |
| OCCCCCCSc1nonc1/C(=N/O)Nc1ccc(F)c(Br)c1 [Example 53, N-(3-bromo-4-fluorophenyl)-N′-hydroxy-4-[(6-hydroxyhexyl)sulfanyl]-1,2,5-oxadiazole-3-carboximidamide] | 786 | 683 | 98.5 |
| CC(C)C(O)CCSc1nonc1/C(=N/O)Nc1ccc(F)c(Br)c1 (stereo not drawn) [Example 54, N-(3-bromo-4-fluorophenyl)-N′-hydroxy-4-[(3-hydroxy-4-methylpentyl)sulfanyl]-1,2,5-oxadiazole-3-carboximidamide] | 204 | 200 | 330 |
| CCNc1c(NCCSc2nonc2/C(=N/O)Nc2ccc(F)c(Br)c2)c(=O)c1=O [Example 55, N-(3-bromo-4-fluorophenyl)-4-[(2-{[2-(ethylamino)-3,4-dioxocyclobut-1-en-1-yl]amino}ethyl)sulfanyl]-N′-hydroxy-1,2,5-oxadiazole-3-carboximidamide] | 261 | 67.8 | 20.2 |
| N=C(N)NCCSc1nonc1/C(=N/O)Nc1ccc(F)c(Br)c1 [Example 56, N-(3-bromo-4-fluorophenvl)-4-[(2-carbamimidamidoethyl)sulfanyl]-N′-hydroxy-1,2,5-oxadiazole-3-carboximidamide] | 212 | 94.3 | 41.5 |
| NC(CCSc1nonc1/C(=N/O)Nc1ccc(F)c(Br)c1)C(=O)O (stereo not drawn) [Example 57, S-{4-[N-(3-bromo-4-fluorophenyl)-N′-hydroxycarbamimidoyl]-1,2,5-oxadiazol-3-yl}homocysteine] | 361 | 131 | 29.4 |
| CC(=O)NCCSc1nonc1/C(=N/O)Nc1cc(Br)c(F)cc1F [Example 58, N-[2-({4-[N-(5-bromo-2,4-difluorophenyl)-N′-hydroxycarbamimidoyl]-1,2,5-oxadiazol-3-yl}sulfanyl)ethyl]acetamide] | 290 | 154 | 136 |
| O/N=C(\Nc1ccc(F)c(Br)c1)c1nonc1SC1CCNCC1 [Example 72, N-(3-bromo-4-fluorophenyl)-N′-hydroxy-4-(piperidin-4-ylsulfanyl)-1,2,5-oxadiazole-3-carboximidamide] | 231 | 283 | 87.8 |
| Nc1c(NCCSc2nonc2/C(=N/O)Nc2ccc(F)c(Br)c2)c(=O)c1=O [Example 73, 4-({2-[(2-amino-3,4-dioxocyclobut-1-en-1-yl)amino]ethyl}sulfanyl)-N-(3-bromo-4-fluorophenyl)-N′-hydroxy-1,2,5-oxadiazole-3-carboximidamide] | 376 | 106 | 27.2 |
| O/N=C(\Nc1ccc(F)c(Br)c1)c1nonc1SCC(O)c1ccccc1 (stereo not drawn) [Example 74, N-(3-bromo-4-fluorophenyl)-N′-hydroxy-4-[(2-hydroxy-2-phenylethyl)sulfanyl]-1,2,5-oxadiazole-3-carboximidamide] | 579 | 388 | 503 |

Now those with a lower IC50 [1], led by results:

| IC50 [1] [nM] | IC50 [2] [nM] | IC50 [3] [nM] | SMILES |
| --- | --- | --- | --- |
| 78.5 | 118 | 53.3 | CN1C(=O)NC[C@@H]1CSc1nonc1/C(=N/O)Nc1ccc(F)c(Br)c1 [Example 43, (R)—N-(3-bromo-4-fluorophenyl)-N′-hydroxy-4-(((3-methyl-2-oxoimidazolidin-4-yl)methyl)thio)-1,2,5-oxadiazole-3-carboximidamide] |
| 31.7 | 11.9 | 65.3 | CC(=O)NCCSc1nonc1/C(=N/O)Nc1ccc(F)c(C(F)(F)F)c1 [Example 49, N-{2-[(4-{N-[4-fluoro-3-(trifluoromethyl)phenyl]-N′-hydroxycarbamimidoyl}-1,2,5-oxadiazol-3-yl)sulfanyl]ethyl}acetamide] |
| 67.5 | 45.7 | 99.5 | OCCSc1nonc1/C(=N/O)Nc1ccc(F)c(C(F)(F)F)c1 [Example 50, N-[4-fluoro-3-(trifluoromethyl)phenyl]-N′-hydroxy-4-[(2-hydroxyethyl)sulfanyl]-1,2,5-oxadiazole-3-carboximidamide] |
| 106 | 48.1 | 113 | CC(=O)NCCSc1nonc1/C(=N/O)Nc1ccc(F)c(C)c1 [Example 51, N-[2-({4-[N-(4-fluoro-3-methylphenyl)-N′-hydroxycarbamimidoyl]-1,2,5-oxadiazol-3-yl}sulfanyl)ethyl]acetamide] |
| 177 | 144 | 356 | CC(=O)NCCSc1nonc1/C(=N/O)Nc1ccc(F)c(OC(F)(F)F)c1 [Example 52, N-{2-[(4-{N-[4-fluoro-3-(trifluoromethoxy)phenyl]-N′-hydroxycarbamimidoyl}-1,2,5-oxadiazol-3-yl)sulfanyl]ethyl}acetamide] |
| 20.6 | 22.4 | 23.2 | CC(=O)NCCSc1nonc1/C(=N/O)Nc1cccc(Br)c1 [Example 59, N-[2-({4-[N-(3-bromophenyl)-N′-hydroxycarbamimidoyl]-1,2,5-oxadiazol-3-yl}sulfanyl)ethyl]acetamide] |
| 176 | 153 | 36.5 | CN/C(=C\[N+](=O)[O-])NCCSc1nonc1C(=NO)Nc1ccc(F)c(Br)c1 [Example 60, N-(3-bromo-4-fluorophenyl)-N′-hydroxy-4-[(2-{[(E)-1-(methylamino)-2-nitroethenyl]amino}ethyl)sulfanyl]-1,2,5-oxadiazole-3-carboximidamide] |
| 171 | 77.5 | 94.3 | O=C(CSc1nonc1/C(=N/O)Nc1ccc(F)c(Br)c1)Nc1ccccc1 [Example 61, 2-({4-[N-(3-bromo-4-fluorophenyI)-N′-hydroxycarbamimidoyl]-1,2,5-oxadiazol-3-yl}sulfanyl)-N-phenylacetamide] |
| 74.5 | 52.6 | 59.4 | CCc1cccc(N/C(=N\O)c2nonc2SCCNC(C)=O)c1 [Example 65, N-[2-({4-[N-(3-ethylphenyl)-N′-hydroxycarbamimidoyl]-1,2,5-oxadiazol-3-yl}sulfanyl)ethyl]acetamide] |
| 67.7 | 92.3 | 28.3 | O/N=C(\Nc1ccc(F)c(Br)c1)c1nonc1SC1CCNC1 (stereo not drawn) [Example 66, N-(3-bromo-4-fluorophenyl)-N′-hydroxy-4-(pyrrolidin-3-ylsulfanyl)-1,2,5-oxadiazole-3-carboximidamide] |
| 17.7 | 14.5 | 39.3 | N#CCSc1nonc1/C(=N/O)Nc1ccc(F)c(Br)c1 [Example 67, N-(3-bromo-4-fluorophenyl)-4-[(cyanomethyl)sulfanyl]-N′-hydroxy-1,2,5-oxadiazole-3-carboximidamide] |
| 107 | 77.2 | 96.2 | N#CC1(CSc2nonc2/C(=N/O)Nc2ccc(F)c(Br)c2)CC1 [Example 68, N-(3-bromo-4-fluorophenvl)-4-{[(1-cyanocyclopropyl)methyl]sulfanyl}-N′-hydroxy-1,2,5-oxadiazole-3-carboximidamide] |
| 26.2 | 20.9 | 27.9 | CNC(=O)CCSc1nonc1/C(=N/O)Nc1ccc(F)c(Br)c1 [Example 70, 3-({4-[N-(3-bromo-4-fluorophenyl)-N′-hydroxycarbamimidoyl]-1,2,5-oxadiazol-3-yl}sulfanyl)-N-methylpropanamide] |
| 109 | 91.2 | 407 | NS(=O)(=O)c1ccc(CCSc2nonc2/C(=N/O)Nc2ccc(F)c(Br)c2)cc1 [Example 71, N-(3-bromo-4-fluorophenyl)-N′-hydroxy-4-{[2-(4-sulfamoylphenyl)ethyl]sulfanyl}-1,2,5-oxadiazole-3-carboximidamide] |
| 114 | 43.8 | 97.2 | NS(=O)(=O)N1CCC(Sc2nonc2/C(=N/O)Nc2ccc(F)c(Br)c2)CC1 [Example 76, N-(3-bromo-4-fluorophenyl)-N′-hydroxy-4-[(1-sulfamoylpiperidin-4-yl)sulfanyl]-1,2,5-oxadiazole-3-carboximidamide] |
